Source: ChEMBL document CHEMBL1697781, “Assessment of the health effects of chemicals in humans: II. Construction of an adverse effects database for QSAR modeling” (Curr Drug Discov Technol, 2004)

Columns and labels:
Details in all cases: human; call rule not given here
Hepatotoxicity [1] = test: FDA HLAED, liver enzyme composite activity
Hepatotoxicity [2] = test: FDA HLAED, alkaline phosphatase increase
Hepatotoxicity [3] = test: FDA HLAED, serum glutamic oxaloacetic transaminase (SGOT) increase
Hepatotoxicity [4] = test: FDA HLAED, serum glutamic pyruvic transaminase (SGPT) increase
Hepatotoxicity [5] = test: FDA HLAED, lactate dehydrogenase (LDH) increase
Hepatotoxicity [6] = test: FDA HLAED, gamma-glutamyl transferase (GGT) increase
For GGT Increase - Index Value in this document: reference of the scale not given here.
For LDH Increase - Index Value in this document: reference of the scale not given here.

| SMILES | Composite Activity - Active (Hepatotoxicity [1]) | Composite Activity - Marginal (Hepatotoxicity [1]) | Composite Activity - Score (Hepatotoxicity [1]) | Alkaline Phosphatase Increase - Activity Score (Hepatotoxicity [2]) | Alkaline Phosphatase Increase - Index Value (Hepatotoxicity [2]) | Alkaline Phosphatase Increase - Number of Reports (Hepatotoxicity [2]) | SGOT Increase - Activity Score (Hepatotoxicity [3]) | SGOT Increase - Index Value (Hepatotoxicity [3]) | SGOT Increase - Number of Reports (Hepatotoxicity [3]) | SGPT Increase - Activity Score (Hepatotoxicity [4]) | SGPT Increase - Index Value (Hepatotoxicity [4]) | SGPT Increase - Number of Reports (Hepatotoxicity [4]) | LDH Increase - Activity Score (Hepatotoxicity [5]) | LDH Increase - Index Value (Hepatotoxicity [5]) | LDH Increase - Number of Reports (Hepatotoxicity [5]) | GGT Increase - Activity Score (Hepatotoxicity [6]) | GGT Increase - Index Value (Hepatotoxicity [6]) | GGT Increase - Number of Reports (Hepatotoxicity [6]) |
| --- | --- | --- | --- | --- | --- | --- | --- | --- | --- | --- | --- | --- | --- | --- | --- | --- | --- | --- |
| CCCCNc1cc(C(=O)O)cc(S(N)(=O)=O)c1Oc1ccccc1 [BUMETANIDE] | 0 | 0 | Inactive | Inactive | 0 | < 4 | Inactive | 0 | < 4 | Inactive | 0 | < 4 | Inactive | 0 | < 4 | Inactive | 0 | < 4 |
| CO[C@]12CC[C@@]3(C[C@@H]1[C@](C)(O)C(C)(C)C)[C@H]1Cc4ccc(O)c5c4[C@@]3(CCN1CC1CC1)[C@H]2O5 [BUPRENORPHINE] | 0 | 0 | Inactive | Inactive | 0 | < 4 | Inactive | 0 | < 4 | Inactive | 0 | < 4 | Inactive | 0 | < 4 | Inactive | 0 | < 4 |
| CC(NC(C)(C)C)C(=O)c1cccc(Cl)c1 (stereo not drawn) [BUPROPION] | 0 | 0 | Inactive | Inactive | 0 | < 4 | Inactive | 0 | < 4 | Inactive | 0 | < 4 | Inactive | 0 | < 4 | Inactive | 0 | < 4 |
| O=C1CC2(CCCC2)CC(=O)N1CCCCN1CCN(c2ncccn2)CC1 [BUSPIRONE] | 0 | 1 | Inactive | Inactive | 0.9 | >= 4 | Inactive | 2.4 | >= 4 | Marginally Active | 3.1 | >= 4 | Inactive | 0.4 | < 4 | Inactive | 0.6 | < 4 |
| CN(Cc1ccc(C(C)(C)C)cc1)Cc1cccc2ccccc12 [BUTENAFINE] | 0 | 0 | Inactive | Inactive | 0 | < 4 | Inactive | 0 | < 4 | Inactive | 0 | < 4 | Inactive | 0 | < 4 | Inactive | 0 | < 4 |
| Clc1ccc(CCC(Cn2ccnc2)Sc2c(Cl)cccc2Cl)cc1 (stereo not drawn) [BUTOCONAZOLE] | 0 | 0 | Inactive | Inactive | 0.2 | < 4 | Inactive | 0 | < 4 | Inactive | 0.2 | < 4 | Inactive | 0 | < 4 | Inactive | 0 | < 4 |
